Experimental data from patent US20180340012A1, “METHODS AND CO[…] TO IMPROVING PROPERTIES OF PHARMACOLOGICAL AGENTS TARGETING NERVOUS SYSTEM” (University of Utah Research Foundation, priority 2006, published 2018).

How the values were obtained:
mechanical allodynia = experiment: Sciatic nerve ligation model, mechanical allodynia; type: in vivo, rats
Description: Just prior to surgery, rats are treated subcutaneously with 0.1 to 0.5 mg/kg of the long acting opiate buprenorphine. Rats are then anesthetized with pentobarbital and the depth of anesthesia monitored by their response to a tail pinch and observation of the depth of respiration. Sterile technique was used throughout the surgery.
The upper thigh of each rat was shaved and wiped off with ethanol and betadine. A small incision was made in the skin and through the underlying muscle of the upper thigh until the sciatic nerve was exposed. The nerve was then separated from the surrounding connective tissue and slightly elevated by a pair of fine, curved forceps. Approximately ⅓ to ½ of the nerve was then tied off by passing a needle and nylon suture (7.0) through the nerve. The muscle and skin incision was then closed sutured separately with 5.0 suture and the animals were kept warm by placing on a thermostatically controlled heat blanket until they have recovered from the anesthesia. This procedure was conducted on the right side (ipsilateral) while a sham surgery was performed on the left hind leg (contralateral). The latter involves a similar procedure with the exception that the sciatic nerve on this side was only exposed and not ligated. Twelve hours post surgery, a second dose of buprenorphine was administered to minimize any discomfort from the surgical procedure. Rats were closely monitored daily for the development of infection or untoward effects of the surgery.
After an appropriate time for recovery (e.g., 7-14 days) the animals were tested for the development of mechanical allodynia (pain response to a non-noxious stimulus). For this study, the animals placed in a bottomless plexiglass box placed on a wire mesh (¼″) platform. After a 30-60 minute acclimation period, a baseline mechanical sensitivity was determined. […] This procedure was repeated until a 50% threshold for withdrawal could be determined.

sound-induced seizures = experiment: Frings audiogenic seizure-susceptible mouse model; type: in vivo
Description: The two modified galanin analogs (GAL-BBB1 and GAL-BBB2) were administered i.p. to a group of Frings audiogenic seizure susceptible mice in a dose of 4 mg/kg. At various times after administration (i.e., 15, 30, 60, 120, and 240 min) each mouse was placed into a cylindrical test chamber fitted with an audio transducer and challenged with a high-intensity sound stimulus (110 dB, 11 KHz for 20 sec). Animals not displaying tonic hind-limb extension were considered protected. […] In a subsequent study, anticonvulsant efficacy was quantitated at the time to peak effect (i.e., 1 h) in a dose-response study.
The ability of individual modified analogs to prevent seizures induced by sound in the AGS-susceptible Frings mouse model can be assessed at the time of peak effect (White et al., 1992). For this test, individual mice are placed into a plexiglass cylinder (diameter, 15 cm; height, 18 cm) fitted with an audio transducer (Model AS-ZC; FET Research and Development, Salt Lake City, Utah), and exposed to a sound stimulus of 110 decibels (11 KHz) delivered for 20 seconds. Sound-induced seizures are characterized by wild running followed by loss of righting reflex with forelimb and hindlimb tonic extension. Mice not displaying hindlimb tonic extension are considered protected.
At various times after administration (i.e., 15, 30, 60, 120, and 240 min) each mouse was placed into a cylindrical test chamber fitted with an audio transducer and challenged with a high-intensity sound stimulus (110 dB, 11 KHz for 20 sec).

[1] = system: tonic-extension (maximal electroshock) seizures; experiment: Maximal electroshock seizure test; type: in vivo, mice; conditions: 4 mg/kg i.p., tested one hour later
Description: Abolition of the hindleg tonic extensor component of the seizure is used as the endpoint.

[2] = system: clonic (s.c. Metrazol) seizures; experiment: s.c. Metrazol seizure test; type: in vivo, mice; conditions: 4 mg/kg i.p., tested one hour later
Description: Mice will be placed into individual plexiglas observation boxes and observed for 30 minutes for the presence of a minimal clonic seizure. Mice not displaying clonic seizure activity will be considered protected.

[3] = system: secondarily generalized partial seizures; experiment: Hippocampal kindled rat model of partial epilepsy; type: in vivo; conditions: i.p.; decreases from 5
[4] = system: formalin-induced paw licking; experiment: Mouse formalin test; type: in vivo
Description: An injection of 0.5% formalin is made into the planter region of a mouse right hind paw. This elicits a distinct biphasic behavioral profile characterized by the mouse licking the affected paw. Immediately following the injection the mouse licks the paw for about 10 minutes. This is phase 1 (acute) and is followed by a brief latent period where there is little behavioral activity. A more prolonged period of about 20 to 30 minutes of paw licking ensues which constitutes phase 2 (inflammatory).
Prior to the administration of the active peptide, drug or vehicle each mouse undergoes a 15-minute conditioning period in one of several 6″ tall plexiglass observation tubes (4″ diameter) that are placed in front of a mirror. […] One hour after treatment, formalin was injected sub-dermally (20 μl; 27 gauge needle) into the plantar surface of the right hind foot. The bevel of the needle is placed facing down toward the skin surface. Following the injection of the formalin each animal is observed for first 2 minutes of each 5 minute epoch for a total of 45 minutes. The cumulative length of licking for each 2 minute time period was measured. An animal receiving the requisite volume of vehicle was alternated with each mouse given GAL-BBB2, Gal 1-16, or gabapentin. Animals were euthanized following the conclusion of the experiment.
Area under the curve (AUC) determination was made using the GraphPad Prism Version 3.03. Total AUC is calculated for both the test and control groups for both the acute and inflammatory phases. The AUC for individual animals for each phase is also calculated and converted to percentage of total AUC of control. The average percentages and SEM for both the drug treated and control were calculated and tested for significant difference.

Substance: Sar-Trp-Thr-Leu-Asn-Ser-Ala-Gly-Tyr-Leu-Leu-Gly-Pro-Lys-Lys-(Lys-palm)-Lys-NH2 [NAX 5055]
- potency compared with morphine (mechanical allodynia; 2 mg/kg i.p. vs 2 mg/kg morphine): equi-potent
- potency compared with gabapentin (mechanical allodynia; 2 mg/kg i.p. vs 40 mg/kg gabapentin): several fold more potent
- threshold for mechanical allodynia (mechanical allodynia; 2 mg/kg i.p., 30 min to 6 h): time-dependent increase
- blocking sound-induced seizures (sound-induced seizures; 4 mg/kg i.p., one hour after administration): effective
- duration of anticonvulsant effect (sound-induced seizures; 4 mg/kg, i.p.): between two and four hours
- onset of anticonvulsant effect (sound-induced seizures; 4 mg/kg, i.p.): ≤ 30 min
- anticonvulsant ED50 (approximate) (sound-induced seizures; given i.p., refers to Example 2): ~3 mg/kg
- median effective dose ED50 (95% confidence intervals) (sound-induced seizures; i.p., at time to peak effect 1 h, Probit analysis): 3.2 (2.3−6.1) mg/kg
- activity in maximal electroshock seizure test [1]: completely inactive
- protection in s.c. Metrazol seizure test [2]: 25%
- seizure score [3]: 3
- effect of 5 mg/kg compared with 10 mg/kg gabapentin ([4]; 5 mg/kg i.p.): equivalent
- paw licking, acute and inflammatory phase ([4]; 0.52-5 mg/kg i.p., 60 min before formalin): dose-dependent reduction
- Active at (flat phase II) ([4]; mouse formalin assay of inflammatory pain): 5 mg/kg (“flat phase II”)
